In patent US20230085307A1, “PYRIDAZINONE COMPOUND AND HERBICIDE” (NISSAN CHEMICAL CORPORATION, priority 2019, published 2023):

The compounds below were run on Japanese bulrush (assay: Test Example 1: herbicidal activity, application before weed generation under submerged conditions (Table 16, symbol B)). Details: 320 g/ha applied herbicide.
Assay type: in vivo, Japanese bulrush (Schoenoplectus juncoides)
In short: (§1)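 Alluvial soil was flooded to 4 cm depth, weed seeds were sown mixed and 2.5-leaf rice seedlings were transplanted. On sowing day, the compound's emulsion, diluted in water to a set dose, was applied to the water surface. Plants grew at 25–30 °C and were scored 0–5 after three weeks.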

Structure (SMILES)	Herbicidal effect on B: Japanese bulrush (grade 0-5)
CCC(COc1ccc(-c2sc3ccccc3c2-c2c(O)c(C)nn(C)c2=O)cc1)OC (racemic) [1-230]	5 (Herbicidal rate of 90% or more (almost completely withered))
Cc1nn(C)c(=O)c(-c2c(-c3ccc(OCCBr)cc3)sc3ccccc23)c1O [1-204]	3 (Herbicidal rate of 40% or more and less than 70%)

These compounds were tested on oval-leafed pondweed (assay: Test Example 1: herbicidal activity, application before weed generation under submerged conditions (Table 16, symbol C)). Details: 320 g/ha applied herbicide.
Assay type: in vivo, oval-leafed pondweed (Monochoria vaginalis)
In short: as §1

Structure (SMILES)	Herbicidal effect on C: oval-leafed pondweed (grade 0-5)
CCC(COc1ccc(-c2sc3ccccc3c2-c2c(O)c(C)nn(C)c2=O)cc1)OC (racemic) [1-230]	4 (Herbicidal rate of 70% or more and less than 90%)
Cc1nn(C)c(=O)c(-c2c(-c3ccc(OCCBr)cc3)sc3ccccc23)c1O [1-204]	3 (Herbicidal rate of 40% or more and less than 70%)

Each compound was assayed on Japanese bulrush (assay: Test Example 2: herbicidal activity, application during weed generation under submerged conditions (Table 17, symbol B)). Details: AAH 320 g/ha; application during weed generation, submerged conditions.
Assay type: in vivo, Japanese bulrush (Schoenoplectus juncoides)
In short: (§2)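 Alluvial soil in Wagner pots was flooded to 4 cm depth and sown with the three weeds together; pots were kept in a greenhouse at 25° C. to 30° C. At the one to two leaf stage, an emulsion formulation diluted in water to a set rate went onto the water surface; scored three weeks later.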

Structure (SMILES)	herbicidal effect rating, B: Japanese bulrush
CCC(COc1ccc(-c2sc3ccccc3c2-c2c(O)c(C)nn(C)c2=O)cc1)OC (racemic) [1-230]	3 (Herbicidal rate of 40% or more and less than 70%)
Cc1nn(C)c(=O)c(-c2c(-c3ccc(OCCBr)cc3)sc3ccccc23)c1O [1-204]	3 (Herbicidal rate of 40% or more and less than 70%)

What follows are compounds tested on oval-leafed pondweed (assay: Test Example 2: herbicidal activity, application during weed generation under submerged conditions (Table 17, symbol C)). Details: AAH 320 g/ha; application during weed generation, submerged conditions.
Assay type: in vivo, oval-leafed pondweed (Monochoria vaginalis)
In short: as §2

Structure (SMILES)	herbicidal effect rating, C: oval-leafed pondweed
CCC(COc1ccc(-c2sc3ccccc3c2-c2c(O)c(C)nn(C)c2=O)cc1)OC (racemic) [1-230]	4 (Herbicidal rate of 70% or more and less than 90%)
Cc1nn(C)c(=O)c(-c2c(-c3ccc(OCCBr)cc3)sc3ccccc23)c1O [1-204]	2 (Herbicidal rate of 20% or more and less than 40%)

Each compound was assayed on green foxtail (assay: Test Example 4: herbicidal effect by soil treatment (Table 19, symbol G)). Details: AAH 320 g/ha.
Assay type: in vivo, green foxtail (Setaria viridis)
In short: (§3)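 In this soil treatment, the formulated compound reached the seeds only through the soil: seeds were buried about 1.5 cm deep in sterilized diluvial soil, then the diluted emulsion was sprayed over the surface. After three weeks at 25° C. to 30° C. in a greenhouse, effects were graded on criteria from an earlier test.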

Structure (SMILES)	G: green foxtail, herbicidal effect rating
CCC(COc1ccc(-c2sc3ccccc3c2-c2c(O)c(C)nn(C)c2=O)cc1)OC (racemic) [1-230]	4 (Herbicidal rate of 70% or more and less than 90%)
Cc1nn(C)c(=O)c(-c2c(-c3ccc(OCCBr)cc3)sc3ccccc23)c1O [1-204]	0 (Herbicidal rate of 5% or less (almost no effect))

These compounds were tested on barnyard grass (assay: Test Example 4: herbicidal effect by soil treatment (Table 19, symbol H)). Details: AAH 320 g/ha.
Assay type: in vivo, barnyard grass (Echinochloa crus-galli)
In short: as §3

Structure (SMILES)	H: barnyard grass, herbicidal effect rating
CCC(COc1ccc(-c2sc3ccccc3c2-c2c(O)c(C)nn(C)c2=O)cc1)OC (racemic) [1-230]	3 (Herbicidal rate of 40% or more and less than 70%)
Cc1nn(C)c(=O)c(-c2c(-c3ccc(OCCBr)cc3)sc3ccccc23)c1O [1-204]	0 (Herbicidal rate of 5% or less (almost no effect))

What follows are compounds tested on wild oat (assay: Test Example 4: herbicidal effect by soil treatment (Table 19, symbol I)). Details: AAH 320 g/ha.
Assay type: in vivo, wild oat (Avena fatua)
In short: as §3

Structure (SMILES)	I: wild oat, herbicidal effect rating
CCC(COc1ccc(-c2sc3ccccc3c2-c2c(O)c(C)nn(C)c2=O)cc1)OC (racemic) [1-230]	0 (Herbicidal rate of 5% or less (almost no effect))
Cc1nn(C)c(=O)c(-c2c(-c3ccc(OCCBr)cc3)sc3ccccc23)c1O [1-204]	0 (Herbicidal rate of 5% or less (almost no effect))

The compounds below were run on redroot pigweed (assay: Test Example 4: herbicidal effect by soil treatment (Table 19, symbol N)). Details: AAH 320 g/ha.
Assay type: in vivo, redroot pigweed (Amaranthus retroflexus)
In short: as §3

Structure (SMILES)	N: redroot pigweed, herbicidal effect rating
CCC(COc1ccc(-c2sc3ccccc3c2-c2c(O)c(C)nn(C)c2=O)cc1)OC (racemic) [1-230]	5 (Herbicidal rate of 90% or more (almost completely withered))
Cc1nn(C)c(=O)c(-c2c(-c3ccc(OCCBr)cc3)sc3ccccc23)c1O [1-204]	3 (Herbicidal rate of 40% or more and less than 70%)

What follows are compounds tested on chickweed (assay: Test Example 4: herbicidal effect by soil treatment (Table 19, symbol P)). Details: AAH 320 g/ha.
Assay type: in vivo, common chickweed (Stellaria media)
In short: as §3

Structure (SMILES)	P: chickweed, herbicidal effect rating
CCC(COc1ccc(-c2sc3ccccc3c2-c2c(O)c(C)nn(C)c2=O)cc1)OC (racemic) [1-230]	2 (Herbicidal rate of 20% or more and less than 40%)
Cc1nn(C)c(=O)c(-c2c(-c3ccc(OCCBr)cc3)sc3ccccc23)c1O [1-204]	0 (Herbicidal rate of 5% or less (almost no effect))

What follows are compounds tested on southern crabgrass (assay: Test Example 5: herbicidal effect by foliage application, plastic box (Table 20, symbol F)). Details: foliage application, 320 g/ha, 3 weeks after application.
Assay type: in vivo, southern crabgrass (Digitaria ciliaris)
In short: (§4)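 Plants were sown into sterilized diluvial soil under about 1.5 cm cover and kept in a greenhouse at 25° C. to 30° C. Fourteen days on, foliage received an even spray of the diluted emulsion. Herbicidal or crop effect was judged three weeks afterwards.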

Structure (SMILES)	effect on southern crabgrass (F)
CCC(COc1ccc(-c2sc3ccccc3c2-c2c(O)c(C)nn(C)c2=O)cc1)OC (racemic) [1-230]	5 (Herbicidal rate of 90% or more (almost completely withered))
Cc1nn(C)c(=O)c(-c2c(-c3ccc(OCCBr)cc3)sc3ccccc23)c1O [1-204]	4 (Herbicidal rate of 70% or more and less than 90%)

These compounds were tested on green foxtail (assay: Test Example 5: herbicidal effect by foliage application, plastic box (Table 20, symbol G)). Details: foliage application, 320 g/ha, 3 weeks after application.
Assay type: in vivo, green foxtail (Setaria viridis)
In short: as §4

Structure (SMILES)	effect on green foxtail (G)
CCC(COc1ccc(-c2sc3ccccc3c2-c2c(O)c(C)nn(C)c2=O)cc1)OC (racemic) [1-230]	5 (Herbicidal rate of 90% or more (almost completely withered))
Cc1nn(C)c(=O)c(-c2c(-c3ccc(OCCBr)cc3)sc3ccccc23)c1O [1-204]	4 (Herbicidal rate of 70% or more and less than 90%)

Each compound was assayed on barnyard grass (assay: Test Example 5: herbicidal effect by foliage application, plastic box (Table 20, symbol H)). Details: foliage application, 320 g/ha, 3 weeks after application.
Assay type: in vivo, barnyard grass (Echinochloa crus-galli)
In short: as §4

Structure (SMILES)	effect on barnyard grass (H)
CCC(COc1ccc(-c2sc3ccccc3c2-c2c(O)c(C)nn(C)c2=O)cc1)OC (racemic) [1-230]	5 (Herbicidal rate of 90% or more (almost completely withered))
Cc1nn(C)c(=O)c(-c2c(-c3ccc(OCCBr)cc3)sc3ccccc23)c1O [1-204]	3 (Herbicidal rate of 40% or more and less than 70%)

The compounds below were run on wild oat (assay: Test Example 5: herbicidal effect by foliage application, plastic box (Table 20, symbol I)). Details: foliage application, 320 g/ha, 3 weeks after application.
Assay type: in vivo, wild oat (Avena fatua)
In short: as §4

Structure (SMILES)	effect on wild oat (I)
CCC(COc1ccc(-c2sc3ccccc3c2-c2c(O)c(C)nn(C)c2=O)cc1)OC (racemic) [1-230]	4 (Herbicidal rate of 70% or more and less than 90%)
Cc1nn(C)c(=O)c(-c2c(-c3ccc(OCCBr)cc3)sc3ccccc23)c1O [1-204]	0 (Herbicidal rate of 5% or less (almost no effect))

What follows are compounds tested on windgrass (assay: Test Example 5: herbicidal effect by foliage application, plastic box (Table 20, symbol L)). Details: foliage application, 320 g/ha, 3 weeks after application.
Assay type: in vivo, windgrass (Apera spica-venti)
In short: as §4

Structure (SMILES)	effect on windgrass (L)
CCC(COc1ccc(-c2sc3ccccc3c2-c2c(O)c(C)nn(C)c2=O)cc1)OC (racemic) [1-230]	4 (Herbicidal rate of 70% or more and less than 90%)
Cc1nn(C)c(=O)c(-c2c(-c3ccc(OCCBr)cc3)sc3ccccc23)c1O [1-204]	0 (Herbicidal rate of 5% or less (almost no effect))

These compounds were tested on persian speedwell (assay: Test Example 5: herbicidal effect by foliage application, plastic box (Table 20, symbol R)). Details: foliage application, 320 g/ha, 3 weeks after application.
Assay type: in vivo, Persian speedwell (Veronica persica)
In short: as §4

Structure (SMILES)	effect on persian speedwell (R)
CCC(COc1ccc(-c2sc3ccccc3c2-c2c(O)c(C)nn(C)c2=O)cc1)OC (racemic) [1-230]	5 (Herbicidal rate of 90% or more (almost completely withered))
Cc1nn(C)c(=O)c(-c2c(-c3ccc(OCCBr)cc3)sc3ccccc23)c1O [1-204]	5 (Herbicidal rate of 90% or more (almost completely withered))
